Assay results from patent US20080221205A1, “FURAN DERIVATIVES FOR PREVENTING AND CURING OSTEOPOROSIS AND PHARMACEUTICAL COMPOSITIONS CONTAINING THE SAME” (priority 2002, published 2008).
Entries after “also recorded” stand apart in the source; their conditions may differ.

Legend:
MG-63 osteoblasts = assay: Proliferation of MG-63 osteoblasts (3H-thymidine incorporation); assay type: cell-based, human; conditions: concentration not given
From the text: In the following tests, three kinds of cell lines were used. The human osteosarcoma cell lines, MG-63 (ATCC No. CRL-1427) and HOS (ATCC No. CRL-1543), and mouse muscle C2C12 muscle cells (ATCC No. CRL-1772) were purchased from ATCC (American Type Culture Collection, Rockville, USA), and cultured in Dulbecco's modified Eagle's medium (DMEM) supplemented with 10% fetal bovine serum (FBS).
In order to indirectly evaluate cytotoxicity of the Compound 1 and investigate effect of the Compound 1 naturally extracted on obsteoblast proliferation, proliferation of MG-63 osteoblasts was investigated by measuring the amount of ^3H-thymidine incorporated into cellular DNA upon DNA replication. The cells were aliquotted onto 24-well plates at a density of 2×10^4 cells per well. The next day, after exchanging culture medium to medium containing 1% FBS, the cells were treated with the compound 1 serially diluted at various concentrations and further cultured for 48 hrs. Four hours before finishing the culture of 48 hrs, ^3H-thymidine was added to the medium in an amount of 3 μCi per well. The cells were washed with phosphate buffer, and treated with 5% trichloroacetic acid (TCA) pre-cooled on ice. Each of the separated TCA-insoluble fractions was dissolved in 0.1 M NaOH. With a portion of each fraction, ^3H-thymidine uptake by the cells was measured using a liquid scintillation counter.

osteoclast formation = assay: Inhibition rate of furan derivatives versus osteoclast formation (TRAP staining); assay type: cell-based, mice; conditions: TRAP-positive multinucleated cells, untreated control set as 100%
In short: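 Non-adherent mouse bone-marrow osteoclast precursors cultured 8 days with 20 ng/ml M-CSF and 30 ng/ml RANKL in presence of compound. TRAP-positive cells with ≥3 nuclei counted; inhibition expressed relative to untreated control set at 100%.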

[1] = test system: ovariectomized white mice; assay: Bone mineral densitometer test, preventive effect on osteoporosis; assay type: in vivo; conditions: for Change in BMD, %: test group, oral 10 mg per mouse after ovariectomy
Procedure: After ovariectomy, female white mice weighing about 250 g were orally administered with 10 mg of the Compound 1 per mice for four weeks. Bone mineral density (BMD) was measured before the ovariectomy and every week during the administration of the Compound 1, using a bone mineral densitometer, XCT 540 Research SA made in Germany.
After anesthetizing the mice being bred in cages by intraperitoneal injection of a mixture of Ketamine HCl (ketara 10 mg/kg) and 2% xylazine HCl (Roupun 0.15 ml/kg), BMD measurement was made at a voxel size of 0.1×0.1 mm^2 and threshold values of 280 mg/cm^2 for cancellous bone and 500 mg/cm^2 for compact bone. The analysis sites at the proximal tibias were determined by Scout scans (10 mm/sec), and BMD was measured at three slices at the determined sites by CT scans (7 mm/sec). BMD measurement was performed twice or more at the same site every week during four weeks.

O=Cc1ccc(CO)o1 [Compound 1, 5-hydroxymethylfuran-2-carboxyaldehyde]
Proliferation rate of osteoblasts compared to control (MG-63 osteoblasts): over 105% | Proliferation rate of osteoblasts compared to control (MG-63 osteoblasts; listed as compound prepared in Example 1): ≥ 105% | Inhibition rate against osteoclast formation, % (osteoclast formation; 0.1 μM): 0% | Inhibition rate against osteoclast formation, % (osteoclast formation; 1 μM): 0% | Inhibition rate against osteoclast formation, % (osteoclast formation; 10 μM): 30% | Change in BMD, % ([1]; Week 1, control −7.5): −2.5% | Change in BMD, % ([1]; Week 2, control −11.6): −3.2% | Change in BMD, % ([1]; Week 3, control −14.9): −1.8% | Change in BMD, % ([1]; Week 4, control −18.6): 3.7% | BMD compared to that before ovariectomy (in words) ([1]; oral 10 mg/day for four weeks after ovariectomy): increase in BMD; also recorded: remarkably increased bone mineral density (BMD)
